Test results from ChEMBL document CHEMBL3885881, “DrugMatrix”.

Organism: Rattus norvegicus
Assay: DrugMatrix - Regimen: Daily Repeat
Type: toxicity, organism-based, Sprague-Dawley
Parameters: regimen Daily Repeat, gender Male, age 6-8 weeks
Conditions: in vivo, po, route oral GAVAGE, vehicle 100 % WATER; for ABSOLUTE BASOPHIL / ABSOLUTE EOSINOPHIL / ABSOLUTE LYMPHOCYTE / ABSOLUTE MONOCYTE / ABSOLUTE SEGMENTED NEUTROPHIL / BASOPHIL / EOSINOPHIL / ERYTHROCYTE COUNT / HEMATOCRIT / HEMOGLOBIN / LEUKOCYTE COUNT / LYMPHOCYTE / MEAN CORPUSCULAR HEMOGLOBIN / MEAN CORPUSCULAR HEMOGLOBIN CONCENTRATION / MEAN CORPUSCULAR VOLUME / MONOCYTE / NEUTROPHIL / NUCLEATED RED BLOOD CELLS / PLATELET COUNT: tissue Blood; for ALANINE AMINOTRANSFERASE / ALBUMIN / ALKALINE PHOSPHATASE / ASPARTATE AMINOTRANSFERASE / BLOOD UREA NITROGEN / CARBON DIOXIDE / CHLORIDE / CHOLESTEROL / CREATINE PHOSPHOKINASE / CREATININE / GLUCOSE / LACTATE DEHYDROGENASE / LIPASE / PHOSPHORUS / POTASSIUM / SODIUM / TOTAL BILIRUBIN / TOTAL PROTEIN / URIC ACID: tissue Plasma
[1] = 0 mg/kg, 72 h, dose level Control, time 3 day
[2] = 0 mg/kg, 120 h, dose level Control, time 5 day
[3] = 28 mg/kg, 72 h, dose level Low, time 3 day

CS(=O)(=O)c1ccc([C@@H](O)[C@@H](CO)NC(=O)C(Cl)Cl)cc1 [THIAMPHENICOL]
ABSOLUTE BASOPHIL [1]: 0 CELLS/uL | ABSOLUTE EOSINOPHIL [1]: 151.33 CELLS/uL | ABSOLUTE LYMPHOCYTE [1]: 10599.5 CELLS/uL | ABSOLUTE MONOCYTE [1]: 109.5 CELLS/uL | ABSOLUTE SEGMENTED NEUTROPHIL [1]: 1139.67 CELLS/uL | BASOPHIL [1]: 0% | EOSINOPHIL [1]: 0.83% | ERYTHROCYTE COUNT [1]: 5.54 x10E6/uL | HEMATOCRIT [1]: 35.35% | HEMOGLOBIN [1]: 13.22 G/DL | LEUKOCYTE COUNT [1]: 12 x10E3/uL | LYMPHOCYTE [1]: 89% | MEAN CORPUSCULAR HEMOGLOBIN [1]: 23.88 pg | MEAN CORPUSCULAR HEMOGLOBIN CONCENTRATION [1]: 37.4 G/DL | MEAN CORPUSCULAR VOLUME [1]: 63.85 fL | MONOCYTE [1]: 1% | NEUTROPHIL [1]: 9.17% | NUCLEATED RED BLOOD CELLS [1]: 0 /100WBC | PLATELET COUNT [1]: 1333.33 x10E3/uL | ALANINE AMINOTRANSFERASE [1]: 53.17 u/L | ALBUMIN [1]: 4.32 G/DL | ALKALINE PHOSPHATASE [1]: 404.33 u/L | ASPARTATE AMINOTRANSFERASE [1]: 83.17 u/L | BLOOD UREA NITROGEN [1]: 15.67 mg/dL | CARBON DIOXIDE [1]: 27.33 mmol/L | CHLORIDE [1]: 101.83 MEQ/L | CHOLESTEROL [1]: 68.67 mg/dL | CREATINE PHOSPHOKINASE [1]: 276.17 u/L | CREATININE [1]: 0.18 mg/dL | GLUCOSE [1]: 163.5 mg/dL | LACTATE DEHYDROGENASE [1]: 144.67 u/L | LIPASE [1]: 8.83 u/L | PHOSPHORUS [1]: 11.72 mg/dL | POTASSIUM [1]: 5.99 MEQ/L | SODIUM [1]: 143.57 MEQ/L | TOTAL BILIRUBIN [1]: 0.2 mg/dL | TOTAL PROTEIN [1]: 6.1 G/DL | URIC ACID [1]: 1.38 mg/dL | ABSOLUTE BASOPHIL [2]: 0 CELLS/uL | ABSOLUTE EOSINOPHIL [2]: 248.67 CELLS/uL | ABSOLUTE LYMPHOCYTE [2]: 12977.83 CELLS/uL | ABSOLUTE MONOCYTE [2]: 19.67 CELLS/uL | ABSOLUTE SEGMENTED NEUTROPHIL [2]: 1137.17 CELLS/uL | BASOPHIL [2]: 0% | EOSINOPHIL [2]: 1.67% | ERYTHROCYTE COUNT [2]: 5.82 x10E6/uL | HEMATOCRIT [2]: 36.35% | HEMOGLOBIN [2]: 13.58 G/DL | LEUKOCYTE COUNT [2]: 14.38 x10E3/uL | LYMPHOCYTE [2]: 90.5% | MEAN CORPUSCULAR HEMOGLOBIN [2]: 23.32 pg | MEAN CORPUSCULAR HEMOGLOBIN CONCENTRATION [2]: 37.42 G/DL | MEAN CORPUSCULAR VOLUME [2]: 62.42 fL | MONOCYTE [2]: 0.17% | NEUTROPHIL [2]: 7.67% | NUCLEATED RED BLOOD CELLS [2]: 0 /100WBC | PLATELET COUNT [2]: 1337.67 x10E3/uL | ALANINE AMINOTRANSFERASE [2]: 48.5 u/L | ALBUMIN [2]: 4.32 G/DL | ALKALINE PHOSPHATASE [2]: 354.33 u/L | ASPARTATE AMINOTRANSFERASE [2]: 80 u/L | BLOOD UREA NITROGEN [2]: 16 mg/dL | CARBON DIOXIDE [2]: 27.33 mmol/L | CHLORIDE [2]: 100.33 MEQ/L | CHOLESTEROL [2]: 68 mg/dL | CREATINE PHOSPHOKINASE [2]: 325.17 u/L | CREATININE [2]: 0.23 mg/dL | GLUCOSE [2]: 172 mg/dL | LACTATE DEHYDROGENASE [2]: 254.83 u/L | LIPASE [2]: 8.33 u/L | PHOSPHORUS [2]: 12.17 mg/dL | POTASSIUM [2]: 6.28 MEQ/L | SODIUM [2]: 143.57 MEQ/L | TOTAL BILIRUBIN [2]: 0.18 mg/dL | TOTAL PROTEIN [2]: 6.12 G/DL | URIC ACID [2]: 1.78 mg/dL | ABSOLUTE BASOPHIL [3]: 0 CELLS/uL | ABSOLUTE EOSINOPHIL [3]: 49.67 CELLS/uL | ABSOLUTE LYMPHOCYTE [3]: 5981.33 CELLS/uL | ABSOLUTE MONOCYTE [3]: 18.33 CELLS/uL | ABSOLUTE SEGMENTED NEUTROPHIL [3]: 584 CELLS/uL | BASOPHIL [3]: 0% | EOSINOPHIL [3]: 0.67% | ERYTHROCYTE COUNT [3]: 5.43 x10E6/uL | HEMATOCRIT [3]: 34.57% | HEMOGLOBIN [3]: 13.07 G/DL | LEUKOCYTE COUNT [3]: 6.63 x10E3/uL | LYMPHOCYTE [3]: 90% | MEAN CORPUSCULAR HEMOGLOBIN [3]: 24 pg | MEAN CORPUSCULAR HEMOGLOBIN CONCENTRATION [3]: 37.8 G/DL | MEAN CORPUSCULAR VOLUME [3]: 63.6 fL | MONOCYTE [3]: 0.33% | NEUTROPHIL [3]: 9% | NUCLEATED RED BLOOD CELLS [3]: 0 /100WBC | PLATELET COUNT [3]: 1197 x10E3/uL | ALANINE AMINOTRANSFERASE [3]: 57.33 u/L | ALBUMIN [3]: 4.33 G/DL | ALKALINE PHOSPHATASE [3]: 344.67 u/L | ASPARTATE AMINOTRANSFERASE [3]: 83 u/L | BLOOD UREA NITROGEN [3]: 16 mg/dL | CARBON DIOXIDE [3]: 29 mmol/L | CHLORIDE [3]: 102.33 MEQ/L | CHOLESTEROL [3]: 74.33 mg/dL | CREATINE PHOSPHOKINASE [3]: 180 u/L | CREATININE [3]: 0.21 mg/dL | GLUCOSE [3]: 145.33 mg/dL | LACTATE DEHYDROGENASE [3]: 123 u/L | LIPASE [3]: 8.33 u/L | PHOSPHORUS [3]: 13.03 mg/dL | POTASSIUM [3]: 6.66 MEQ/L | SODIUM [3]: 147.17 MEQ/L | TOTAL BILIRUBIN [3]: 0.17 mg/dL | TOTAL PROTEIN [3]: 6.53 G/DL | URIC ACID [3]: 1.33 mg/dL
